In patent publication US9579406B2, “Phospholipid ether analogs as agents for detecting and locating cancer, and methods thereof” (Cellectar, Inc., priority 2004, dated 2017):

Columns and labels:
spontaneous lung tumor = experiment: Bioscan imaging of spontaneous lung tumor; format: in vivo, Apc^Min mouse; conditions: 4 days post injection
Excerpt: FIG. 13. Bioscan image (A) obtained 4 days post ^125I-NM404 injection into an Apc^Min mouse.
(§1) NM404 has now been evaluated in 27 animal tumor models, including several lung, and it is clear that once the agent enters tumor cells, it reaches a metabolic dead end and becomes trapped. […] NM404 is also retained in spontaneous murine lung tumors (FIG. 13). Using ^125I-labeled NM404, the inventors have been able to image mammary and prostate tumors in mice in excess of 60 days. […] Imaging and tissue distribution studies performed in mouse models aimed at determining the uptake characteristics in a wide variety of tumor models are summarized in Table 2.

[1] = tested on: human PC-3 prostate tumor xenografts; experiment: Scintigraphy and tissue distribution in SCID mice bearing human PC-3 prostate tumor xenografts; format: in vivo; conditions: day 5
Excerpt: Tumor uptake, however, continued to increase up until day 5 when it reached 18% injected dose per gram of tumor. […] Tumor to background tissue ratios exceeded 4, 6.8, 23, and 9 in blood, liver, muscle, and prostate, respectively, 3 days after injection and continued to improve at 5 and 8 days. Again, although thyroid levels ranged from 26 to 54% injected dose per gram of tissue, these levels are actually quite low and represent an extremely small percentage of the injected dose when the exceedingly small mass of the organ is considered and the data are presented on a percent administered dose per organ basis.

[2] = Human safety study of unlabeled NM404 in normal volunteers; format: in vivo
Procedure: Formal toxicology studies of NM404 in male rats and rabbits were performed at the Toxicology Research Center of the State University of New York at Buffalo under the direction of Dr. Paul Kostyniak. Drug vehicle and drug product were provided to Dr. Kostyniak by Dr. Raymond Counsell of the University of Michigan for testing as described in the appended synopses of Study 27 and Study 28. […] Human safety studies of unlabeled NM404 were initiated in normal male humans at a mass of 10 times the anticipated imaging dose and about 21 times the anticipated therapy dose. […] This toxicology study was performed under GLP conditions.
Safety assessment in normal male subjects healthy normal female subjects were carried out and it was determined that a dose level of 3 μg/kg of C-NM-404 is safe to administer to male subjects. […] A dose level of 3 μg/kg of C-NM-404 is safe to administer to female subjects.

[3] = tested on: A549 lung, PC-3 prostate, c-myc pancreatic tumors; experiment: microPET imaging in lung, prostate and pancreatic mouse tumor models; format: in vivo
Excerpt: Human pharmacokinetic studies have confirmed this finding as only 4% of the agent is cleared renally within 4 days of iv injection (majority is excreted via GI route).

phospholipase D (PLD) = experiment: Phospholipase D (PLD) assay; format: biochemical, cabbage; conditions: in the presence of ethanol
Procedure: Finally, several PLE analogs were subjected to a phospholipase D (PLD) assay. The PLD, which was isolated from cabbage, is similar to mammalian PLD in that the cabbage form affords phosphatidylethanol-type products in addition to phosphatidic acid when the enzymatic reaction is performed in the presence of ethanol. Several of the PLE analogs subjected to these assay conditions did give rise to the phosphatidylethanol adduct, indicating possible interaction with PLD. The inventors believes that NM404 is a metabolic substrate to human Phospholipase D, and that the relative absence of Phospholipase D in cancer cell membranes is the underlying mechanism for tumor-selective retention of NM404. Although known from the literature (reference[…]), it is still unclear why cancers lack PLD in their membranes.
As conclusion, the mechanism of selective retention of NM404 may be due to a decrease in the membrane levels of PLD, thus precluding metabolism and clearance of NM404 from the cell. […] This supports the finding of the in vitro cell culture uptake and retention study wherein it was shown that PLE analogs were sequestered by and subsequently metabolized by normal cells (which contained normal levels of PLD). […]

[4] = tested on: prostate and A549 lung cancer tumors; experiment: Comparative biodistribution in SCID mouse prostate and A549 lung cancer tumor models; conditions: in vivo
Procedure: In one such example in a rat mammary tumor model, tumor-to-normal tissue ratios reached a maximum at 96 hours with a tumor-to-blood ratio of 8.6 and tumor-to-muscle ratio of 20:1.
Extensive biodistribution data for the prototype agent ^125I-NM324 in several tumor models has previously been reported. […] For example, in a rat mammary tumor model, tumor-to-normal tissue ratios reached a maximum at 96 hours with a tumor-to-blood ratio of 8.6 and tumor-to-muscle ratio of 20:1. […] Comparative biodistribution data for NM324 and NM404 in SCID mice have been obtained in prostate and A549 lung cancer tumor models.

lymph node metastases = experiment: Scintigraphy in metastatic prostate tumor model; conditions: in vivo
Excerpt: A variety of tumors including mammary, prostate, squamous cell carcinoma, ovarian, colorectal, and melanoma were successfully visualized by scintigraphy with NM324.
This agent has also been evaluated preclinically in a metastatic prostate tumor model in which lymph node metastases were clearly delineated by scintigraphy following intravenous administration of NM404 but, pertinently, the tracer was not retained by uninvolved lymph nodes. Selectivity of NM404 for malignant cells is particularly relevant in prostate cancer as conventional tumor markers such as PSA may also be elevated in a variety of benign disease states including prostatitis and benign prostatic hypertrophy. Furthermore, selective uptake and prolonged retention by tumor cells supports a role for NM404 as a tumor-selective diagnostic and therapeutic agent.

[5] = tested on: benign intestinal adenomas, preneoplastic hyperplasias; experiment: Selectivity for benign and preneoplastic lesions; format: in vivo, mouse
Excerpt: (§2) Although tumor retention can be explained by a lack of metabolic phospholipase enzymes in the tumor cell membranes, the exact mechanism of tumor cell uptake is unknown. […] The inventors are currently evaluating the selectivity of NM404 in a unique mouse tumor model developed at Wisconsin, wherein both preneoplastic hyperplasias and malignant adenocarcinomas form spontaneously in the mammary gland. […] If this initial observation is validated, then via genomic and or proteomic analysis the inventors may be able to identify a key genetic difference between malignant tumors and their non malignant predecessor cells. This could identify a completely new molecular therapeutic target that may be universal for all types of cancer.

Lung NCI H-69 (Oat Cell) = experiment: Tumor models examined with NM404 (Table 2); format: in vivo, Nude Mouse; conditions: Small cell carcinoma
Excerpt: as §1, §2

Ovarian HTB-77 = experiment: Tumor models examined with NM404 (Table 2); format: in vivo, Nude Mouse; conditions: Adenocarcinoma
Excerpt: as §1, §2

Glioma L9 and CNS-1 = experiment: Tumor models examined with NM404 (Table 2); format: in vivo, Rat xenograft
Excerpt: as §1, §2

[6] = Acute GLP toxicology, single iv dose, 14 days observation, rats; format: in vivo; conditions: female rats
[7] = tested on: non-small cell lung cancer; experiment: Planar gamma-camera scintigraphy with 131I-NM-404 in NSCLC patients; conditions: time points examined
Procedure: The preparation dispensed by the Nuclear Pharmacy will be certified as sterile and pyrogen-free. The subject will be monitored for adverse reactions during and after the infusion. Vital signs will be checked immediately after the infusion, and at 60 minute intervals up to four hours post-injection. They will be observed for adverse events throughout this time. […] Vital signs will be monitored at these times. Any adverse reactions experienced by the subjects will be recorded.

SMILES | uptake into spontaneous lung tumor (spontaneous lung tumor) | tumor uptake [1] | dose level safe to administer ([2]; female subjects) [µg/kg] | dose level safe to administer ([2]; male subjects) [µg/kg] | toxicity ([2]; normal male humans, 10 times the anticipated imaging dose) | time to tumor uptake ([3]; after injection) [h] | tumor avidity ([3]; mouse, in vivo) | substrate for PLD (phospholipase D (PLD)) | tumor uptake [4] | localization in lymph node metastases (lymph node metastases) | uptake and retention in preneoplastic lesions ([5]; mammary gland model, preliminary) | localization in benign intestinal adenomas ([5]; mouse, in vivo) | NM404 Tumor Localization (Lung NCI H-69 (Oat Cell)) | NM404 Tumor Localization (Ovarian HTB-77) | NM404 Tumor Localization (Glioma L9 and CNS-1) | adverse effects [6] | toxic effects ([6]; 0.04 mg/kg (Study 31)) | urinary bladder radioactivity [7]
C[N+](C)(C)CCOP(=O)([O-])OCCCCCCCCCCCCCCCCCCc1ccc([125I])cc1 [Compound I-125-NM404] | intense uptake of NM404 into the tumor |  |  |  |  |  |  |  |  |  |  |  |  |  |  |  |  | 
C[N+](C)(C)CCOP(=O)([O-])OCCCCCCCCCCCCCCCCCCc1ccc(I)cc1 [NM-404, 18-(4-iodophenyl)-octadecylphosphocholine] |  | 18 % injected dose per gram of tumor | 3 | 3 | no toxicity attributable to the drug substance | ≤ 6 | significant tumor avidity regardless of location in the body | a good substrate for this enzyme | exceeding 25 % of the injected dose | clearly delineated by scintigraphy in a metastatic prostate tumor model without retention in uninvolved lymph nodes | not taken up and retained in preneoplastic lesions | does not localize in benign intestinal adenomas (polyps) | Yes (Localization defined as >5% injected dose per gram tumor basis based on tissue distribution data) | Yes (Localization defined as >5% injected dose per gram tumor basis based on tissue distribution data) | Yes (Localization defined as >5% injected dose per gram tumor basis based on tissue distribution data) | no adverse effects attributable to the test article were noted | no significant toxic effects were noted | lack of urinary bladder radioactivity
